Source: PMC6911004, “Fragment-based screening identifies molecules targeting the substrate-binding ankyrin repeat domains of tankyrase” (Scientific Reports, 2019)

Tests used:
Type in all cases: binding
TNKS ARC2–3 (331–645) = molecular target: T1, TNKS ARC2–3 (331–645) (Homo sapiens, UniProt O95271); assay: WaterLOGSY NMR assay
T1 construct: TNKS ARC2–3 (331–645); His6-GST; made in house; host or cells: E. coli
Method: (§1) Fragments were dispensed in duplicate into a 384-well plate (250 nL, 100 mM stock in DMSO). Wells were backfilled with DMSO (2.25 μL). Tankyrase ARC protein (47.5 μL in 25 mM HEPES-NaOH pH7.5, 100 mM NaCl, 2 mM TCEP, 10% D2O; 20 μM final protein concentration in the assay) was added to the samples containing protein; buffer only (47.5 μL) was added to the compound-only samples. Solutions were transferred to 1.7 mm NMR tubes using a Gilson liquid handling system. ^1H NMR spectra were recorded, with the DMSO signal dampened. The bulk water signal at 4.7 ppm was selectively inverted. Data were processed using Bruker Topspin 3.14[66].

TNKS ARC1 (178–336) = molecular target: T2, TNKS ARC1 (178–336) (Homo sapiens, UniProt O95271); assay: WaterLOGSY NMR assay
T2 construct: TNKS ARC1 (178–336); His6-GST; made in house; host or cells: E. coli
Method: as §1

TNKS ARC4 (646–807) = molecular target: T3, TNKS ARC4 (646–807) (Homo sapiens, UniProt O95271); assay: WaterLOGSY NMR assay
T3 construct: TNKS ARC4 (646–807); His6-GST; made in house; host or cells: E. coli
Method: as §1

TNKS ARC5 (799–958) = molecular target: T4, TNKS ARC5 (799–958) (Homo sapiens, UniProt O95271); assay: WaterLOGSY NMR assay
T4 construct: TNKS ARC5 (799–958); His6-GST; made in house; host or cells: E. coli
Method: as §1

[1] = molecular target: T5, TNKS2 ARC4 aromatic glycine sandwich (YY536/569AA) (Homo sapiens, UniProt Q9H2K2, Y536A/Y569A); assay: T2 relaxation-edited NMR with mutant ARC
T5 construct: TNKS2 ARC4 (488–649); His6-GST; made in house; host or cells: E. coli BL21-CodonPlus (DE3)-RIL
Text: (§2) We used three previously designed TNKS2 ARC4 mutant variants[4] to explore potential binding determinants for fragment 9. A WFE591/593/598AAA triple-mutation abrogates three key residues in the “arginine cradle”; YY536/569AA truncates two tyrosine residues that form the “glycine sandwich”, and L560W introduces a bulky residue into the “central patch” that sterically clashes with the TBM peptide (see Fig. 5A,B for locations of the mutated residues). We tested binding of compound 9 to the wild-type and mutant ARCs by ligand-observed NMR, using the relaxation-edited assay (Fig. 5C, Table 4). […] Binding was impaired but not abolished for the “central patch” mutant variant (L560W).
Fragments were dispensed in duplicate into a 384-well plate (250 nL, 100 mM stock in DMSO). […] Solutions were transferred to 1.7 mm NMR tubes using a Gilson liquid handling system. ^1H NMR spectra were recorded, with the DMSO and water signals dampened. […] The average integral for all peaks between 6.0–10.0 ppm was calculated, and the difference between compound-only and compound-plus-protein samples was compared. […] For competitive experiments, 3BP2 16-mer peptide (100 μM) was added, and the spectra were recorded and processed as above. The variability in signal reduction in the relaxation-edited experiment was previously determined as approximately ± 10% (Liu et al., unpublished observations).

[2] = molecular target: T5, TNKS2 ARC4 aromatic glycine sandwich (YY536/569AA); assay: WaterLOGSY NMR with mutant ARC
Text: as §2, §1

[3] = molecular target: T6, TNKS2 ARC4 central patch (L560W) (Homo sapiens, UniProt Q9H2K2, L560W); assay: WaterLOGSY NMR with mutant ARC
T6 construct: TNKS2 ARC4 (488–649); His6-GST; made in house; host or cells: E. coli BL21-CodonPlus (DE3)-RIL
Text: as §2, §1

[4] = molecular target: T7, TNKS2 ARC4 arginine cradle (WFE591/593/598AAA) (Homo sapiens, UniProt Q9H2K2, E598A/F593A/W591A); assay: WaterLOGSY NMR with mutant ARC
T7 construct: The cell was filled with TNKS2 ARC4 (488–649); His6-GST; made in house; host or cells: E. coli
Text: as §2, §1

T4 sequence (O95271 799-958): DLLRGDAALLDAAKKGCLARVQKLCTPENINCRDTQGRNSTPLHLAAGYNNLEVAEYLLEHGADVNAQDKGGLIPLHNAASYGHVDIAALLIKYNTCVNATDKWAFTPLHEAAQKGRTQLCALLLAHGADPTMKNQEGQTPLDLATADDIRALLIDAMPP
T3 sequence (O95271 646-807): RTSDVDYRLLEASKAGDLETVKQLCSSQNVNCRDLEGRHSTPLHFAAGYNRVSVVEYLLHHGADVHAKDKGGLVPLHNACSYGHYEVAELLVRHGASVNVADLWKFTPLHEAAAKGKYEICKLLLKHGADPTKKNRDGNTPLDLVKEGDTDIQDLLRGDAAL
T1 sequence (O95271 331-645): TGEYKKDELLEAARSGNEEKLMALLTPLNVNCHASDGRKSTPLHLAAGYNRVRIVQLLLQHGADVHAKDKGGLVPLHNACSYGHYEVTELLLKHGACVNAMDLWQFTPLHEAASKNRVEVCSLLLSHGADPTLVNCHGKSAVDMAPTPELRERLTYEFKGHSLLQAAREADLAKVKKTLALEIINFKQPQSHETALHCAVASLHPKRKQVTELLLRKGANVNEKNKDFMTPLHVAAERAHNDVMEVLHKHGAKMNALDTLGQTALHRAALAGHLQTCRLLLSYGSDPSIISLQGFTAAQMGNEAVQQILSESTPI

O=C(NCc1ccco1)c1ccc2nccnc2c1 [compound 9]
waterLOGSY (TNKS ARC2–3 (331–645)): negative NOE signal
waterLOGSY (TNKS ARC1 (178–336)): negative NOE signal
waterLOGSY (TNKS ARC4 (646–807)): negative NOE signal
waterLOGSY (TNKS ARC5 (799–958)): negative NOE signal
T2 relaxation-edited: reduction of signal integrals [1]: 0%
waterLOGSY [2]: positive NOE
waterLOGSY [3]: positive NOE
waterLOGSY [4]: negative NOE
